Here are results for 14 molecules from patent US8163909B2, “Substituted hydroxyethyl amine compounds as beta-secretase modulators and methods of use” (Amgen Inc., priority 2007, dated 2012).

For data set [1], the target named is Beta Secretase enzyme (BACE) (Homo sapiens, UniProt P56817). Nature of the data set: In vitro enzymatic BACE FRET (fluorescence resonance energy transfer) assay.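 Note: fluorescence read after 1 h with 50 nM quenched peptide substrate spanning the BACE cleavage site, in pH 4.2 acetate buffer containing 10% DMSO and nonionic detergent.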 The data set is classed as biochemical.
The test system of data set [2] is Aβ40 in conditioned medium of cells stably expressing Amyloid Precursor Protein (APP). Briefly: In vitro BACE cell-based assay (Aβ40 in conditioned medium, sandwich ELISA).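 Note: compounds added as a dilution series, secreted peptide quantified by europium time-resolved fluorescence readout, potency fitted from percent of control versus compound concentration.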 As to conditions: Homo sapiens.
For the next data set, the target named is CYP3A4 (CYP3A) (Homo sapiens, UniProt P08684). Briefly: in vitro. Particulars: microsomes, pH 7.4.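 Note: inhibition of CYP3A-mediated 1-hydroxymidazolam formation after 10 min incubation with NADPH, quantified by HPLC MS relative to metabolite produced without test compound.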
Data set [3] in a line: Microsomal stability assay, rat liver microsomes.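 Note: rat liver microsomes (0.25 mg/mL) with about 1 µM compound plus 1 mM NADPH, pH 7.4, 37 °C for 30 min, parent left measured by LC-MS/MS against 0 min.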 On the technique in general: Liver microsomes are vesicles of endoplasmic reticulum, rich in cytochrome P450 enzymes.
Data set [4] is described as follows: Microsomal stability assay, human liver microsomes.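 Note: pooled human liver microsomes at 0.25 mg/mL with 1 µM compound and NADPH at 37 °C, pH 7.4, for 30 min, unchanged parent quantified by LC-MS/MS against the 0 min sample.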
For another data set, the target named is CYP2D6 (Homo sapiens, UniProt P10635). Nature of the data set: CYP2D6 inhibition assay (bufuralol, pooled human liver microsomes).
[5] abbreviates: BACE enzyme assay, read-out: BACE1 FRET assay.
Where [6] appears, read: HEK293, HEK cells, read-out: HEK cell assay.
Where [7] appears, read: 2D6 IC50 (uM), CYP enzyme inhibition.
Where [8] appears, read: read-out: BACE1 FRET assay (IC50).
[9] abbreviates: HEK293, HEK cells, read-out: HEK cell assay (IC50).
Setting [10] is: BACE enzyme assay IC50, read-out: BACE1 FRET assay.
Setting [11] is: HEK293, HEK cell-based assay IC50, read-out: HEK cell assay.
Setting [12] is: 2D6 IC50 (uM), CYP2D6 inhibition.
Where [13] appears, read: BACE enzyme assay, IC50's in uM, read-out: BACE1 FRET assay.
The mark [14] stands for this setting: HEK293, HEK cell-based assay, IC50's in uM, read-out: HEK cell assay.

Each structure is given as a SMILES string. Where two headings read alike, the source gives them in different places.

Sequence of Beta Secretase enzyme (BACE) (P56817 46-501): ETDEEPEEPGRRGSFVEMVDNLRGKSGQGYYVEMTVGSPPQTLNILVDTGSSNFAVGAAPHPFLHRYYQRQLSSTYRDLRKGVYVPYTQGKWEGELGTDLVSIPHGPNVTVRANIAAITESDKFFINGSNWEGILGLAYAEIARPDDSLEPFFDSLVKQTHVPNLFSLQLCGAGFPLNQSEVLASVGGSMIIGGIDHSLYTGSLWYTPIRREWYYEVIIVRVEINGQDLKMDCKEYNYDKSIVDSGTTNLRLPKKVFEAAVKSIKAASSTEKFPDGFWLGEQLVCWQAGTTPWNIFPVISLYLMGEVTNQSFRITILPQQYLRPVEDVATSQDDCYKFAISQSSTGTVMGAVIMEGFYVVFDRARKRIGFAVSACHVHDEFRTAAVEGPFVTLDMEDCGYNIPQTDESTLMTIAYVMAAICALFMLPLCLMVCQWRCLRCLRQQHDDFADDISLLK
Sequence of CYP2D6 (P10635 whole entry): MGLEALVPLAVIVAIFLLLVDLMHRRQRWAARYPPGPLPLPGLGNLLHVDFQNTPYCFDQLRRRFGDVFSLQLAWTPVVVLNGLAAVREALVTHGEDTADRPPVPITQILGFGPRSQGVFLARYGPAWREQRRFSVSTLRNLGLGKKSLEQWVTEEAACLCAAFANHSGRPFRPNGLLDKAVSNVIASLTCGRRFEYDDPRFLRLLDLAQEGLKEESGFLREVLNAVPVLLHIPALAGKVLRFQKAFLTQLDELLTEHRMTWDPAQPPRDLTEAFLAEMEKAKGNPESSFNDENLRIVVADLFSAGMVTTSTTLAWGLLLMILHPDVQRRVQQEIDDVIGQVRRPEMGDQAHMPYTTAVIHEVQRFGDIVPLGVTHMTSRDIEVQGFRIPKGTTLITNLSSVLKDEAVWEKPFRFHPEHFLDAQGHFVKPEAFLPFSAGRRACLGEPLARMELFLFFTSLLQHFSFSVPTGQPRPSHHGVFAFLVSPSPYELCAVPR
Sequence of CYP3A4 (CYP3A) (P08684 2-503): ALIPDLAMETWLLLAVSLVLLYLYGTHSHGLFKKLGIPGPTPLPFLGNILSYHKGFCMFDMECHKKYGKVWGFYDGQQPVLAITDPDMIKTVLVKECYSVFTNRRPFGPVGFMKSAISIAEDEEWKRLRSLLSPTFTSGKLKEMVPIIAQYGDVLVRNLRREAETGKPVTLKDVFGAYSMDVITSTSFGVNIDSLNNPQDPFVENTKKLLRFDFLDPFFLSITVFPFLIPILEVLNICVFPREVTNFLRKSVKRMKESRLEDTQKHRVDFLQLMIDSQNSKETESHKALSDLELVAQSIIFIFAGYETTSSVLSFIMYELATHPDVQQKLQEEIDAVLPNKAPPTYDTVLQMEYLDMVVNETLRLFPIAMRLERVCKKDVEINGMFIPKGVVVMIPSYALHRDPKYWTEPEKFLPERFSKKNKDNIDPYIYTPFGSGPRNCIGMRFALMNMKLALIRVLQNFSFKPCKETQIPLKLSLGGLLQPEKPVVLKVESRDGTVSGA

Take `CC(=O)N[C@@H](Cc1ccc(F)cc1)[C@H](O)CN[C@H]1CC2(CCC2)Oc2c1cc(CC(C)(C)C)nc2N1CCOCC1` [Example 421, N-((2S,3R)-4-((S)-2,2-spirocyclobutyl-8-morpholino-6-neopentyl-3,4-dihydro-2H-pyrano[2,3-c]pyridin-4-ylamino)-1-(4-fluorophenyl)-3-hydroxybutan-2-yl)acetamide]: the IC50 in data set [1] (setting [5]) turned out to be 0.134 µM; in data set [2] (setting [6]), 0.054 µM; at CYP3A4 (CYP3A), 1300 nM; against CYP2D6 (setting [7]), 3.6 µM. In data set [3] (rat liver microsomal data), the “RLM” value came out at 151 µL/min/mg. Moreover, the “HLM” value in data set [4] (human liver microsomal data) is 211 µL/min/mg.
For the molecule `COCC(=O)N[C@@H](Cc1cccc(F)c1)[C@H](O)CN[C@H]1CC2(CCC2)Oc2c1cc(CC(C)(C)OC)cc2-n1ccnc1.O=C(O)C(F)(F)F` [Example 423], the IC50 in data set [1] (setting [8]) was 0.579 µM; in data set [2] (setting [9]), 0.063 µM; against CYP3A4 (CYP3A), 100 nM; on CYP2D6 (2D6 IC50, CYP2D6 inhibition) it was 0.3 µM. This molecule also returned an RLM in data set [3] (rat liver microsomes) of 132 µL/min/mg. Besides, the HLM in data set [4] (human liver microsomes) came to 35 µL/min/mg.
On to `CC(=O)N[C@@H](Cc1ccc(F)c(-n2ccnc2)c1)[C@H](O)CN[C@H]1CC2(CCC2)Oc2ncc(CC(C)(C)C)cc21` [Example 426, N-((1S,2R)-3-(((4′S)-6′-(2,2-dimethylpropyl)-3′,4′-dihydrospiro[cyclobutane-1,2′-pyrano[2,3-b]pyridin]-4′-yl)amino)-1-(4-fluoro-3-(1H-imidazol-1-yl)benzyl)-2-hydroxypropyl)acetamide], for which the IC50 was 0.031 µM in data set [1] (setting [10]), 0.011 µM in data set [2] (setting [11]), at most 30 nM against CYP3A4 (CYP3A) and 0.1 µM at CYP2D6 (setting [12]). Moreover, in data set [3] (rat liver microsomes), the “RLM” value came out at 14 µL/min/mg. Also, in data set [4] (human liver microsomes), the “HLM” value amounted to 22 µL/min/mg.
`CC(=O)N[C@@H](Cc1ccc(F)c(-c2ncc[nH]2)c1)[C@H](O)CN[C@H]1CC2(CCC2)Oc2ncc(CC(C)(C)C)cc21` [Example 428, N-((2S,3R)-4-((S)-2,2-spirocyclobutyl-6-neopentyl-3,4-dihydro-2H-pyrano[2,3-b]pyridin-4-ylamino)-1-(4-fluoro-3-(1H-imidazol-2-yl)phenyl)-3-hydroxybutan-2-yl)acetamide]: the IC50 in data set [1] (setting [10]) worked out at 0.061 µM; in data set [2] (setting [11]), 0.013 µM; against CYP3A4 (CYP3A), 300 nM; against CYP2D6 (setting [12]), 1.3 µM. In addition, in data set [3] (rat liver microsomes), the “RLM” value was 124 µL/min/mg. Further, the “HLM” value in data set [4] (human liver microsomes) was 225 µL/min/mg.
Turning to `CC(=O)N[C@@H](Cc1cccc(-c2ncc[nH]2)c1)[C@H](O)CN[C@H]1CC2(CCC2)Oc2ncc(CC(C)(C)C)cc21` [Example 429, N-((2S,3R)-1-(3-(1H-imidazol-2-yl)phenyl)-4-((S)-2,2-spirocyclobutyl-6-neopentyl-3,4-dihydro-2H-pyrano[2,3-b]pyridin-4-ylamino)-3-hydroxybutan-2-yl)acetamide], the IC50 stood at 3.59 µM in data set [1] (setting [10]), 0.6 µM in data set [2] (setting [11]), 1300 nM at CYP3A4 (CYP3A) and 0.5 µM against CYP2D6 (setting [12]). Moreover, in data set [3] (rat liver microsomes), the “RLM” value was determined as 37 µL/min/mg. Besides, in data set [4] (human liver microsomes), the “HLM” value came out at 88 µL/min/mg.
Consider `CC(=O)N[C@@H](Cc1ccc(F)c(-c2ccco2)c1)[C@H](O)CN[C@H]1CC2(CCC2)Oc2ccc(CC(C)(C)C)cc21` [Example 432, N-((2S,3R)-4-((S)-2,2-spirocyclobutyl-6-neopentyl-3,4-dihydro-2H-chromen-4-ylamino)-1-(4-fluoro-3-(furan-2-yl)phenyl)-3-hydroxybutan-2-yl)acetamide], for which the IC50 in data set [1] (setting [8]) came to 0.006 µM; in data set [2] (setting [9]), 0.332 µM; on CYP3A4 (CYP3A) it was 1500 nM; at CYP2D6 (2D6 IC50, CYP2D6 inhibition) it was 3.1 µM. In data set [3] (rat liver microsomes), this molecule registered an RLM of 323 µL/min/mg. Besides, the HLM in data set [4] (human liver microsomes) is 280 µL/min/mg.
With `CC(=O)N[C@@H](Cc1cc(F)cc(-c2ccncc2)c1)[C@H](O)CN[C@H]1CC2(CCC2)Oc2ccc(CC(C)(C)C)cc21` [Example 433, N-((2S,3R)-4-((S)-2,2-spirocyclobutyl-6-neopentyl-3,4-dihydro-2H-chromen-4-ylamino)-1-(3-fluoro-5-(pyridin-4-yl)phenyl)-3-hydroxybutan-2-yl)acetamide], the IC50 in data set [1] (setting [8]) was found to be 0.021 µM; in data set [2] (setting [9]) it was 0.038 µM; on CYP3A4 (CYP3A), 1100 nM; at CYP2D6 (2D6 IC50, CYP2D6 inhibition), 0.2 µM. Also, in data set [3] (rat liver microsomes), the RLM amounted to 590 µL/min/mg. For the same molecule, in data set [4] (human liver microsomes), the HLM is 492 µL/min/mg.
As for `COCC(=O)N[C@@H](Cc1ccc(-c2nccs2)cc1)[C@H](O)CN[C@H]1CC2(CCC2)Oc2ncc(CC(C)C)cc21` [Example 434, N-((2S,3R)-3-hydroxy-4-((S)-6-isobutyl-2,2-spirocyclobutyl-3,4-dihydro-2H-pyrano[2,3-b]pyridin-4-ylamino)-1-(4-(thiazol-2-yl)phenyl)butan-2-yl)-2-methoxyacetamide], the IC50 came to 0.075 µM in data set [1] (setting [13]), 0.273 µM in data set [2] (setting [14]), 200 nM on CYP3A4 (CYP3A) and 1.3 µM at CYP2D6 (setting [7]). Moreover, in data set [3] (rat liver microsomal data), the “RLM” value is 60 µL/min/mg. Also, in data set [4] (human liver microsomal data), the “HLM” value came out at 80 µL/min/mg.
As for `COCC(=O)N[C@@H](Cc1cccc(F)c1)[C@H](O)CN[C@H]1CC2(CCC2)Oc2c(-c3ccnc(N(C)C)c3)cc(CC(C)(C)C)cc21` [Example 439, N-((1S,2R)-3-(((4S)-8-(2-(dimethylamino)-4-pyridinyl)-6-(2,2-dimethylpropyl)-3,4-dihydrospiro[chromene-2,1′-cyclobutan]-4-yl)amino)-1-(3-fluorobenzyl)-2-hydroxypropyl)-2-methoxyacetamide], the IC50 in data set [1] (setting [10]) came to 0.02 µM; in data set [2] (setting [11]), 0.005 µM; against CYP3A4 (CYP3A), 1300 nM; against CYP2D6 (setting [12]), 4.1 µM. The “RLM” value in data set [3] (rat liver microsomes) is 515 µL/min/mg. In addition, in data set [4] (human liver microsomes), the “HLM” value stood at 601 µL/min/mg.
Take `CC(C)(C)Cc1cnc2c(c1)[C@@H](NC[C@@H](O)[C@H](Cc1ccc(F)cc1)NC(=O)[C@H]1CCO1)CC1(CCC1)O2` [Example 440, (2R)—N-((1S,2R)-3-(((4′S)-6′-(2,2-dimethylpropyl)-3′,4′-dihydrospiro[cyclobutane-1,2′-pyrano[2,3-b]pyridin]-4′-yl)amino)-1-((4-fluorophenyl)methyl)-2-hydroxypropyl)-2-oxetanecarboxamide]: the IC50 in data set [1] (setting [5]) worked out at 0.016 µM; in data set [2] (setting [6]), 0.035 µM; on CYP3A4 (CYP3A), 700 nM; at CYP2D6 (setting [7]) it was 8.2 µM. In addition, in data set [3] (rat liver microsomal data), the “RLM” value stood at 242 µL/min/mg. For the same molecule, in data set [4] (human liver microsomal data), the “HLM” value was 209 µL/min/mg.
Take `CC(C)(C)Cc1cnc2c(c1)[C@@H](NC[C@@H](O)[C@H](Cc1ccc(F)cc1)NC(=O)[C@@H]1CCO1)CC1(CCC1)O2` [Example 441, (2S)—N-((1S,2R)-3-(((4′S)-6′-(2,2-dimethylpropyl)-3′,4′-dihydrospiro[cyclobutane-1,2′-pyrano[2,3-b]pyridin]-4′-yl)amino)-1-((4-fluorophenyl)methyl)-2-hydroxypropyl)-2-oxetanecarboxamide]: the IC50 was 0.012 µM in data set [1] (setting [5]), 0.012 µM in data set [2] (setting [6]), 1100 nM on CYP3A4 (CYP3A) and at least 27 µM against CYP2D6 (setting [7]). Moreover, in data set [3] (rat liver microsomal data), the “RLM” value stood at 124 µL/min/mg. Besides, the “HLM” value in data set [4] (human liver microsomal data) is 416 µL/min/mg.
For the molecule `COCC(=O)N[C@@H](Cc1cc(F)cc(-c2nccs2)c1)[C@H](O)CN[C@H]1CC2(CCC2)Oc2ncc(CC(C)C)cc21` [Example 695, N-((1S,2R)-1-(3-fluoro-5-(1,3-thiazol-2-yl)benzyl)-2-hydroxy-3-(((4′S)-6′-(2-methylpropyl)-3′,4′-dihydrospiro[cyclobutane-1,2′-pyrano[2,3-b]pyridin]-4′-yl)amino)propyl)-2-methoxyacetamide], the IC50 came to 0.004 µM in data set [1] (setting [10]), 0.011 µM in data set [2] (setting [11]), 100 nM against CYP3A4 (CYP3A) and 0.5 µM against CYP2D6 (setting [12]). Besides, the “RLM” value in data set [3] (rat liver microsomes) amounted to 64 µL/min/mg. In addition, the “HLM” value in data set [4] (human liver microsomes) was determined as 77 µL/min/mg.
In the case of `COCC(=O)N[C@@H](Cc1cc(F)cc(-c2nccs2)c1)[C@H](O)CN[C@H]1CC2(CCC2)Oc2ncc(CC(C)(C)F)cc21` [Example 724, N-((1S,2R)-3-(((4′S)-6′-(2-fluoro-2-methylpropyl)-3′,4′-dihydrospiro[cyclobutane-1,2′-pyrano[2,3-b]pyridin]-4′-yl)amino)-1-(3-fluoro-5-(1,3-thiazol-2-yl)benzyl)-2-hydroxypropyl)-2-methoxyacetamide], the IC50 was 0.006 µM in data set [1] (setting [10]), 0.009 µM in data set [2] (setting [11]), 200 nM on CYP3A4 (CYP3A) and 0.9 µM on CYP2D6 (setting [12]). For the same molecule, the “RLM” value in data set [3] (rat liver microsomes) was found to be 38 µL/min/mg. Besides, the “HLM” value in data set [4] (human liver microsomes) amounted to 45 µL/min/mg.
Regarding `COCC(=O)N[C@@H](Cc1cccc(-c2nccs2)c1)[C@H](O)CN[C@H]1CC2(CCC2)Oc2ncc(CC(C)C)cc21` [Example 757, N-((1S,2R)-2-hydroxy-3-(((4′S)-6′-(2-methylpropyl)-3′,4′-dihydrospiro[cyclobutane-1,2′-pyrano[2,3-b]pyridin]-4′-yl)amino)-1-(3-(1,3-thiazol-2-yl)benzyl)propyl)-2-methoxyacetamide], the IC50 in data set [1] (setting [13]) is 0.007 µM; in data set [2] (setting [14]), 0.018 µM; against CYP3A4 (CYP3A), 250 nM; against CYP2D6 (setting [7]), 0.45 µM. In addition, the “RLM” value in data set [3] (rat liver microsomal data) stood at 60 µL/min/mg. Besides, in data set [4] (human liver microsomal data), the “HLM” value stood at 60 µL/min/mg.
